Test results from patent US20140057895A1, “INDAZOLE- AND PYRROLOPYRIDINE-DERIVATIVE AND PHARMACEUTICAL USE THEREOF” (priority 2011, published 2014).

Key:
[1] = target: T1, Human 5-HT4 receptor (5-HT4b) (Homo sapiens, UniProt Q13639); assay: Test Example 3: Human 5-HT4 receptor binding assay, membranes of CHO-K1 cells stably expressing 5-HT4b receptors (Table 99); details: mean value of each group
T1 construct: expressed in transfected cells; membrane preparation
Method in brief: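 Membranes from CHO-K1 cells stably expressing 5-HT4b incubated with 0.1 nM [3H]-GR113808 in 50 mM Hepes pH 7.4, 37 °C, 30 min; nonspecific binding with 30 μM serotonin. Bound label collected by filtration and scintillation counting; IC50 from inhibition of specific binding.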

human 5-HT4b receptor = target: T2, human 5-HT4b receptor (Homo sapiens, UniProt Q13639); assay: Test Example 4: Serotonin 4 (5-HT4) receptor agonist activity assay, cAMP HTRF in CHO cells (Table 100); format: cell-based; details: mean value; for Emax: CHO, 0.25 h, intrinsic activity, maximal activity of 5-HT defined as 100%, read-out: IA (%); for EC50: concentration showing 50% of IA
T2 construct: expressed in transfected cells; host or cells: CHO cells (G418 selection)
Method in brief: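 CHO cells expressing human 5-HT4b receptor, serum-reduced for 1–2 h, were suspended in Hanks/HEPES pH 7.4 and exposed to compound for 15 min at 31° C. cAMP detected by HTRF (cryptate/d2, 1 h RT, 620/665 nm). EC50 and intrinsic activity relative to maximal 5-HT response (10^−11 to 10^−7 M) set at 100%.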

T1 sequence (Q13639 whole entry): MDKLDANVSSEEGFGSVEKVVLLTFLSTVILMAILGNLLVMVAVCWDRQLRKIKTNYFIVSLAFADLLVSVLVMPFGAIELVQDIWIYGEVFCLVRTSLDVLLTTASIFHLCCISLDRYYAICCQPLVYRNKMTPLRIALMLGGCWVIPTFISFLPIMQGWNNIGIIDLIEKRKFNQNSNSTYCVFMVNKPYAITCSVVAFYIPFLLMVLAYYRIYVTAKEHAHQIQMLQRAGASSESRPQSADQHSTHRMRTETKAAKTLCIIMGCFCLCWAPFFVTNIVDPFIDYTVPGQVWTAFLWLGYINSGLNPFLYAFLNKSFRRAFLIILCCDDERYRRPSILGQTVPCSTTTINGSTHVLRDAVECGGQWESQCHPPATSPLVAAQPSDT
T2 sequence (Q13639 whole entry): as above

With `CC(C)c1nn(-c2noc(C[C@@H]3CCN(C4CCN(S(C)(=O)=O)CC4)C3)n2)c2c(F)cccc12` [Example 508, 7-fluoro-1-[5-({(3S)-1-[1-(methylsulfonyl)piperidin-4-yl]pyrrolidin-3-yl}methyl)-1,2,4-oxadiazol-3-yl]-3-(propan-2-yl)-1H-indazole] the IC50 [1] was under 20 nM, the Emax (human 5-HT4b receptor) was 54% and the EC50 (human 5-HT4b receptor) was 3.7 nM.

Work on `CC(=O)N1CCC[C@H]1CN1CC[C@@H](Cc2nc(-n3nc(C(C)C)c4cccc(F)c43)no2)C1` [Example 509, 1-[(2S)-2-{[(3S)-3-({3-[7-fluoro-3-(propan-2-yl)-1H-indazol-1-yl]-1,2,4-oxadiazol-5-yl}methyl)pyrrolidin-1-yl]methyl)pyrrolidin-1-yl]ethanone] yielded an IC50 [1] of 27.4 nM, an Emax (human 5-HT4b receptor) of 56% and an EC50 (human 5-HT4b receptor) of 16.3 nM.

Work on `CC(C)c1nn(-c2noc(C[C@@H]3CCN(C[C@@H]4CCCN4S(C)(=O)=O)C3)n2)c2c(F)cccc12` [Example 510, 7-fluoro-1-(5-{[(3S)-1-{[(2S)-1-(methylsulfonyl)pyrrolidin-2-yl]methyl}pyrrolidin-3-yl]methyl}-1,2,4-oxadiazol-3-yl)-3-(propan-2-yl)-1H-indazole] yielded an IC50 [1] of under 20 nM, an Emax (human 5-HT4b receptor) of 46% and an EC50 (human 5-HT4b receptor) of 2.7 nM.

`CC(=O)N1CCC[C@@H]1CN1CC[C@@H](Cc2nc(-n3nc(C(C)C)c4cccc(F)c43)no2)C1` [Example 511, 1-[(2R)-2-{[(3S)-3-({3-[7-fluoro-3-(propan-2-yl)-1H-indazol-1-yl]-1,2,4-oxadiazol-5-yl}methyl)pyrrolidin-1-yl]methyl}pyrrolidin-1-yl]ethanone] gave an IC50 [1] of under 20 nM, an Emax (human 5-HT4b receptor) of 51% and an EC50 (human 5-HT4b receptor) of 9.6 nM.

Work on `CC(C)c1nn(-c2noc(C[C@@H]3CCN(C[C@H]4CCCN4S(C)(=O)=O)C3)n2)c2c(F)cccc12` [Example 512, 7-fluoro-1-(5-{[(3S)-1-{[(2R)-1-(methylsulfonyl)pyrrolidin-2-yl]methyl}pyrrolidin-3-yl]methyl}-1,2,4-oxadiazol-3-yl)-3-(propan-2-yl)-1H-indazole] yielded an IC50 [1] of under 20 nM, an Emax (human 5-HT4b receptor) of 30% and an EC50 (human 5-HT4b receptor) of 4.3 nM.

With `CC(=O)N1CC(CN2CC[C@@H](Cc3nc(-n4nc(C(C)C)c5cccc(F)c54)no3)C2)C1` [Example 513, 1-(3-{[(3S)-3-({3-[7-fluoro-3-(propan-2-yl)-1H-indazol-1-yl]-1,2,4-oxadiazol-5-yl}methyl)pyrrolidin-1-yl]methyl}azetidin-1-yl)ethanone] the IC50 [1] was under 20 nM, the Emax (human 5-HT4b receptor) was 81% and the EC50 (human 5-HT4b receptor) was 10.2 nM.

`CC(C)c1nn(-c2noc(C[C@@H]3CCN(CC4CN(S(C)(=O)=O)C4)C3)n2)c2c(F)cccc12` [Example 514, 7-fluoro-1-(5-{[(3S)-1-{[1-(methylsulfonyl)azetidin-3-yl]methyl}pyrrolidin-3-yl]methyl}-1,2,4-oxadiazol-3-yl)-3-(propan-2-yl)-1H-indazole] was tested, and the IC50 [1] was under 20 nM, the Emax (human 5-HT4b receptor) was 70% and the EC50 (human 5-HT4b receptor) was 12 nM.

Work on `CC(=O)N1CC[C@@H](CN2CC[C@@H](Cc3nc(-n4nc(C(C)C)c5cccc(F)c54)no3)C2)C1` [Example 515] yielded an IC50 [1] of under 20 nM, an Emax (human 5-HT4b receptor) of 70% and an EC50 (human 5-HT4b receptor) of 8.5 nM.

`CC(C)c1nn(-c2noc(C[C@@H]3CCN(C[C@@H]4CCN(S(C)(=O)=O)C4)C3)n2)c2c(F)cccc12` [Example 516, 7-fluoro-1-(5-{[(3S)-1-{[(3S)-1-(methylsulfonyl)pyrrolidin-3-yl]methyl}pyrrolidin-3-yl]methyl}-1,2,4-oxadiazol-3-yl)-3-(propan-2-yl)-1H-indazole] gave an IC50 [1] of under 20 nM, an Emax (human 5-HT4b receptor) of 75% and an EC50 (human 5-HT4b receptor) of 7.2 nM.

Work on `CC(=O)N1CC[C@H](CN2CC[C@@H](Cc3nc(-n4nc(C(C)C)c5cccc(F)c54)no3)C2)C1` [Example 517, 1-[(3R)-3-{[(3S)-3-({3-[7-fluoro-3-(propan-2-yl)-1H-indazol-1-yl]-1,2,4-oxadiazol-5-yl}methyl)pyrrolidin-1-yl]methyl}pyrrolidin-1-yl]ethanone] yielded an IC50 [1] of under 20 nM, an Emax (human 5-HT4b receptor) of 72% and an EC50 (human 5-HT4b receptor) of 6.1 nM.

With `CC(C)c1nn(-c2noc(C[C@@H]3CCN(C[C@H]4CCN(S(C)(=O)=O)C4)C3)n2)c2c(F)cccc12` [Example 518, 7-fluoro-1-(5-{[(3S)-1-{[(3R)-1-(methylsulfonyl)pyrrolidin-3-yl]methyl}pyrrolidin-3-yl]methyl}-1,2,4-oxadiazol-3-yl)-3-(propan-2-yl)-1H-indazole] the IC50 [1] was under 20 nM, the Emax (human 5-HT4b receptor) was 59% and the EC50 (human 5-HT4b receptor) was 5.5 nM.

With `O=C(CO)N1CCC(N2CCC(c3nc(-n4nc(C5CC5)c5cccc(F)c54)no3)CC2)CC1` [Example 523, 1-{4-[3-(3-cyclopropyl-7-fluoro-1H-indazol-1-yl)-1,2,4-oxadiazol-5-yl]-1,4′-bipiperidin-1′-yl}-2-hydroxyethanone] the IC50 [1] was under 20 nM, the Emax (human 5-HT4b receptor) was 24% and the EC50 (human 5-HT4b receptor) was 2.9 nM.

Work on `CCCc1nn(-c2noc(C3CCN(C4CCN(C(=O)CO)CC4)CC3)n2)c2c(F)cccc12` [Example 524, 1-{4-[3-(7-fluoro-3-propyl-1H-indazol-1-yl)-1,2,4-oxadiazol-5-yl]-1,4′-bipiperidin-1′-yl}-2-hydroxyethanone] yielded an IC50 [1] of under 20 nM, an Emax (human 5-HT4b receptor) of 84% and an EC50 (human 5-HT4b receptor) of 4.3 nM.

With `Cc1nn(-c2noc(C3CCN(C4CCN(C(=O)CO)CC4)CC3)n2)c2c(F)cccc12` [Example 525, 1-{4-[3-(7-fluoro-3-methyl-1H-indazol-1-yl)-1,2,4-oxadiazol-5-yl]-1,4′-bipiperidin-1′-yl}-2-hydroxyethanone] the IC50 [1] was under 20 nM, the Emax (human 5-HT4b receptor) was 86% and the EC50 (human 5-HT4b receptor) was 18.1 nM.

`O=C(CO)N1CCC(N2CCC(c3nc(-n4nc(C5CCC5)c5cccc(F)c54)no3)CC2)CC1` [Example 527, 1-{4-[3-(3-cyclobutyl-7-fluoro-1H-indazol-1-yl)-1,2,4-oxadiazol-5-yl]-1,4′-bipiperidin-1′-yl}-2-hydroxyethanone] was tested, and the IC50 [1] was under 20 nM, the Emax (human 5-HT4b receptor) was 114% and the EC50 (human 5-HT4b receptor) was 5.7 nM.

Work on `CCC(C)c1nn(-c2noc(C3CCN(C4CCN(C(=O)CO)CC4)CC3)n2)c2c(F)cccc12` (stereo not drawn) [Example 528, 1-(4-{3-[3-(butan-2-yl)-7-fluoro-1H-indazol-1-yl]-1,2,4-oxadiazol-5-yl}-1,4′-bipiperidin-1′-yl)-2-hydroxyethanone] yielded an IC50 [1] of under 20 nM, an Emax (human 5-HT4b receptor) of 121% and an EC50 (human 5-HT4b receptor) of 17.3 nM.

With `CC(C)c1nn(-c2noc(C3CCN(C4CCN(C(=O)CO)CC4(C)C)CC3)n2)c2c(F)cccc12` (stereo not drawn) [Example 531, 1-(4-{3-[7-fluoro-3-(propan-2-yl)-1H-indazol-1-yl]-1,2,4-oxadiazol-5-yl}-3′,3′-dimethyl-1,4′-bipiperidin-1′-yl)-2-hydroxyethanone] the IC50 [1] was under 20 nM, the Emax (human 5-HT4b receptor) was 95% and the EC50 (human 5-HT4b receptor) was 11.4 nM.

Compound `CC(C)c1nn(-c2noc(C3CCN(C4C5CCC4CN(C(=O)CO)C5)CC3)n2)c2c(F)cccc12` (stereo not drawn) [Example 534, 1-[(8-anti)-8-(4-(3-[7-fluoro-3-(propan-2-yl)-1H-indazol-1-yl]-1,2,4-oxadiazol-5-yl}piperidin-1-yl)-3-azabicyclo[3.2.1]oct-3-yl]-2-hydroxyethanone] has an IC50 [1] of 42.4 nM, an Emax (human 5-HT4b receptor) of 104% and an EC50 (human 5-HT4b receptor) of 5.7 nM.

Work on `CC(C)c1nn(-c2noc(C3CCN([C@H]4[C@@H]5CCC[C@H]4CN(C(=O)CO)C5)CC3)n2)c2c(F)cccc12` [Example 536, 1-[(9-syn)-9-(4-{3-[7-fluoro-3-(propan-2-yl)-1H-indazol-1-yl]-1,2,4-oxadiazol-5-yl}piperidin-1-yl)-3-azabicyclo[3.3.1]non-3-yl]-2-hydroxyethanone] yielded an IC50 [1] of under 20 nM, an Emax (human 5-HT4b receptor) of 100% and an EC50 (human 5-HT4b receptor) of 3.7 nM.

`CC(C)c1nn(-c2noc(C3CCN(C4(C)CCN(C(=O)CO)CC4)CC3)n2)c2c(F)cccc12` [Example 537, 1-(4-{3-[7-fluoro-3-(propan-2-yl)-1H-indazol-1-yl]-1,2,4-oxadiazol-5-yl}-4′-methyl-1,4′-bipiperidin-1′-yl)-2-hydroxyethanone] was tested, and the IC50 [1] was under 20 nM, the Emax (human 5-HT4b receptor) was 111% and the EC50 (human 5-HT4b receptor) was 1.3 nM.

Work on `CCc1nn(-c2noc(C3CCN(C4(C)CCN(C(=O)CO)CC4)CC3)n2)c2c(F)cccc12` [Example 538, 1-{4-[3-(3-ethyl-7-fluoro-1H-indazol-1-yl)-1,2,4-oxadiazol-5-yl]-4′-methyl-1,4′-bipiperidin-1′-yl}-2-hydroxyethanone] yielded an IC50 [1] of under 20 nM, an Emax (human 5-HT4b receptor) of 76% and an EC50 (human 5-HT4b receptor) of 2.4 nM.

`CC(C)c1nn(-c2noc(C[C@H]3CCN(C4CCN(C(=O)CO)CC4)C3)n2)c2c(F)cccc12` [Example 539, 1-{4-[(3R)-3-({3-[7-fluoro-3-(propan-2-yl)-1H-indazol-1-yl]-1,2,4-oxadiazol-5-yl}methyl)pyrrolidin-1-yl]piperidin-1-yl}-2-hydroxyethanone] was tested, and the IC50 [1] was under 20 nM, the Emax (human 5-HT4b receptor) was 75% and the EC50 (human 5-HT4b receptor) was 2.6 nM.

With `CC(C)c1nn(-c2noc(C[C@H]3CCN(C[C@@H]4CCCN4C(=O)CO)C3)n2)c2c(F)cccc12` [Example 540, 1-[(2S)-2-{[(3R)-3-({3-[7-fluoro-3-(propan-2-yl)-1H-indazol-1-yl]-1,2,4-oxadiazol-5-yl}methyl)pyrrolidin-1-yl]methyl}pyrrolidin-1-yl]-2-hydroxyethanone] the IC50 [1] was 78.1 nM, the Emax (human 5-HT4b receptor) was 106% and the EC50 (human 5-HT4b receptor) was 15.3 nM.

In the case of `CC(C)c1nn(-c2noc(C[C@H]3CCN(C[C@H]4CCCN4C(=O)CO)C3)n2)c2c(F)cccc12` [Example 541, 1-[(2R)-2-{[(3R)-3-({3-[7-fluoro-3-(propan-2-yl)-1H-indazol-1-yl]-1,2,4-oxadiazol-5-yl}methyl)pyrrolidin-1-yl]methyl}pyrrolidin-1-yl]-2-hydroxyethanone], the IC50 [1] is reported as 35.8 nM, the Emax (human 5-HT4b receptor) is reported as 79% and the EC50 (human 5-HT4b receptor) is reported as 9 nM.
